Reference: patent US7101878B1 (Agouron Pharmaceuticals, Inc., priority 1998, dated 2006)
Each block holds one molecule with its values, some of them ahead of it.

How the values were obtained:
[1] = Metabolism rate, pmol/min/mg at 1 μM, rat male; type: in vitro ADME; conditions: 1 μM compound
[2] = target: T1, bovine GnRH receptor (Bos taurus, UniProt P32236); assay: Radioligand binding, 125I-GnRH-A, bovine pituitary membranes; conditions: read-out: bGnRH IC50
T1 construct: membranes were prepared from bovine pituitary; from tissue; host or cells: bovine pituitary
T1 sequence (P32236 1-328): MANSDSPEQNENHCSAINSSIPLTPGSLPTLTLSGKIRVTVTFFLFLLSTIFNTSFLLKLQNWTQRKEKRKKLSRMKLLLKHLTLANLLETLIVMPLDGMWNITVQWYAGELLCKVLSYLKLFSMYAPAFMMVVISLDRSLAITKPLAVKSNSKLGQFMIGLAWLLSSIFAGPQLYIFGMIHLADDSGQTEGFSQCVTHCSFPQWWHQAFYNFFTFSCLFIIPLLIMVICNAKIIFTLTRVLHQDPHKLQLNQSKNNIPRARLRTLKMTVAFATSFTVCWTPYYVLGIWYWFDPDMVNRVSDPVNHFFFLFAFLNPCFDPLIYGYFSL
Method in brief: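 Bound label captured on 0.1% polyethyleneimine-treated GF/C filters, washed three times with PBS, counted. IC50 derived; identical set-up for every species.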

[3] = Metabolism rate, pmol/min/mg at 1 μM, dog; type: in vitro ADME; conditions: 1 μM compound
[4] = target: 5-HT2a (Homo sapiens, UniProt P28223); assay: Selectivity: 5-HT2a
[5] = system: LH levels in castrated rats; assay: Castrated male rat model, LH suppression; type: in vivo
Text: Experimental Protocol: Male Sprague-Dawley (225-250 g) rats were castrated and allowed 10 days postoperative recovery. Ten days post castration animals were instrumented with indwelling femoral venous and arterial catheters to facilitate remote infusions and blood sampling. On the day of the experiment, animals were allowed to acclimate to the procedure room while residing in their home cage. Basal blood samples were drawn from all animals. Following basal sampling, either vehicle (10% DMSO, 10% cremophor/saline), Antide (1.0 μg) or compound 11 (10 mg/kg) was administered intravenously. Blood samples were drawn 10, 60, 90, 120, 180, 240 minutes after injections. Blood was centrifuged, serum collected and stored in −70° freezer until assayed. Serum samples were analyzed using DSL-4600 ACTIVE LH coated-tube immunoradiometric assay kit from Diagnostic Systems Laboratories, Inc.
Surgical removal of the gonads removes circulating testosterone and eliminates the negative feedback of testosterone on the hypothalamus. […] This model seems suitable for evaluating small molecule GnRH antagonists.
Male Sprague-Dawley ([…]) rats were castrated via the scrotal approach under halothane anesthesia. Animals were allowed 14 days post operative recovery prior to study. Thirteen days following castration, animals were anesthetized with halothane and instrumented with indwelling jugular vein cannula. Details of the cannulation procedure have been described previously {Harms and Ojeda, 1974)}. On study day, animals were allowed to acclimate to the procedure room while residing in their home cage. Basal blood samples were drawn from all animals. Immediately following basal sampling, vehicle or test compounds were administered by various routes. The routes of administration employed were intravenous (iv), intramuscular (im), intraperitoneal (ip), subcutaneous (sc) and oral (po). Blood samples were drawn into heparin containing tubes at multiple time points post treatment. Blood was centrifuged immediately, plasma collected and stored in −20° freezer until assayed. Plasma samples were analyzed using DSL-4600 ACTIVE LH coated-tube immunoradiometric assay kit from Diagnostic Systems Laboratories, Inc.
Formulation #1 (denoted with superscript 1): 10% DMSO, 10% Cremophor EL and 80% physiological saline.
Formulation #2 (denoted with superscript 2): 10% Cremophor EL and 90% physiological saline.

[6] = Metabolism rate, pmol/min/mg at 1 μM, monkey; type: in vitro ADME; conditions: 1 μM compound
[7] = Metabolism rate, pmol/min/mg at 1 μM, rat female; type: in vitro ADME; conditions: 1 μM compound
[8] = target: 5-HT7 (Homo sapiens, UniProt P34969); assay: Selectivity: 5-HT7
[9] = target: D2 Dopamine (Homo sapiens, UniProt P14416); assay: Selectivity: D2 Dopamine
D2 Dopamine, sequence (P14416 whole entry): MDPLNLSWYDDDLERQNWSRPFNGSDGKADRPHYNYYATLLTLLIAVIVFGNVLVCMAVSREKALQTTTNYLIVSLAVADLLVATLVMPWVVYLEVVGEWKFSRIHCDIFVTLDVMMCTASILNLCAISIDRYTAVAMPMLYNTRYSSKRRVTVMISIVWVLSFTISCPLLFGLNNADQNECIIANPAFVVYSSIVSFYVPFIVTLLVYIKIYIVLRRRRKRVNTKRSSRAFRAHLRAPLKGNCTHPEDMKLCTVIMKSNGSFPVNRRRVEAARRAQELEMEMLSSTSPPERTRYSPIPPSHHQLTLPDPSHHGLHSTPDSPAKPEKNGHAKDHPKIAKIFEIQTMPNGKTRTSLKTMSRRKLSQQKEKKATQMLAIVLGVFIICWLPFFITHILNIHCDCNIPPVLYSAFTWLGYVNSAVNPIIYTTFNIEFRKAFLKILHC

5-HT7, sequence (P34969 whole entry, species assumed): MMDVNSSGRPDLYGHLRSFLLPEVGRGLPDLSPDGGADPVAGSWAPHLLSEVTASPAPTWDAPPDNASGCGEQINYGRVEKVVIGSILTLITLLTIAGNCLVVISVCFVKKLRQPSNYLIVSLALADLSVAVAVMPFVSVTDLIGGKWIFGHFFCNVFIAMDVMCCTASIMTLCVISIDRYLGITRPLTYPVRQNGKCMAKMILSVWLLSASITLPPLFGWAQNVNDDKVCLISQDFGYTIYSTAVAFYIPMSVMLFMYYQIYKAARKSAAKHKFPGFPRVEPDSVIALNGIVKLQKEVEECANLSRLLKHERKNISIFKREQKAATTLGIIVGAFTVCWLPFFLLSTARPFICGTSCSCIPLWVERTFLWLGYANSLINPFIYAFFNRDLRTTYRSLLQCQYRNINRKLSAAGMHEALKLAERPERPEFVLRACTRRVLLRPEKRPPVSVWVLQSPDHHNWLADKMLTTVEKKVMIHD
5-HT2a, sequence (P28223 whole entry, species assumed): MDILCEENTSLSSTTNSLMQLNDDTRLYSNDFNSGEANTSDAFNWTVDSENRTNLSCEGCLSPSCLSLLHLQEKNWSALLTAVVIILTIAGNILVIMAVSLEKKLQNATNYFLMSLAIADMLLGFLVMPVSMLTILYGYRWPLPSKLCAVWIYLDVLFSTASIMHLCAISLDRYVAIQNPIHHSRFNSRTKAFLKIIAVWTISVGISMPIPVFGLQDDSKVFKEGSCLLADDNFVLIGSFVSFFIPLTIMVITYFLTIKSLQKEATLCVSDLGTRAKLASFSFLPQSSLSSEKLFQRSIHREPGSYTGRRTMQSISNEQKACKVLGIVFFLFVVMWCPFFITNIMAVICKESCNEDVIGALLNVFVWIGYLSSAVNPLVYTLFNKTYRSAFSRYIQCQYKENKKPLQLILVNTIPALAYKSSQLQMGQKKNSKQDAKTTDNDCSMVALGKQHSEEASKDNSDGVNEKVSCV

Compound: COc1cc(OC)c(NC(=O)c2ccc(Cc3cc4c(cc3C)C(C)(C)CCC4(C)C)o2)c(OC)c1 [Compound 134]
Dog pmol/min/mg 1 μM [3]: 2159 pmol/min/mg
Ki [4]: 3.72 µM
% Max LH Suppression ([5]; 1.0 mg/kg iv): 24%
time of % Max LH Suppression ([5]; 1.0 mg/kg iv): 0.5 h
% Max LH Suppression ([5]; 5.0 mg/kg iv): 70%
time of % Max LH Suppression ([5]; 5.0 mg/kg iv): 0.5 h
% Max LH Suppression ([5]; 10 mg/kg iv): 100%
time of % Max LH Suppression ([5]; 10 mg/kg iv): 0.5 h
≧50% Suppression Duration ([5]; 10 mg/kg iv): 2 h
% Max LH Suppression ([5]; 20 mg/kg im): 73%
LH in CX rats ([5]; 20 mg/kg im): suppresses LH
time of % Max LH Suppression ([5]; 20 mg/kg im): 2 h
≧50% Suppression Duration ([5]; 20 mg/kg im): 8 h
% Max LH Suppression ([5]; 20 mg/kg ip): 80%
time of % Max LH Suppression ([5]; 20 mg/kg ip): 2 h
≧50% Suppression Duration ([5]; 20 mg/kg ip): 4 h
% Max LH Suppression ([5]; 20 mg/kg po): 62%
time of % Max LH Suppression ([5]; 20 mg/kg po): 4 h
≧50% Suppression Duration ([5]; 20 mg/kg po): 4 h
% Max LH Suppression ([5]; 20 mg/kg sc): 53%
time of % Max LH Suppression ([5]; 20 mg/kg sc): 8 h
≧50% Suppression Duration ([5]; 20 mg/kg sc): 8 h
% Max LH Suppression ([5]; 100 mg/kg im): 98%
time of % Max LH Suppression ([5]; 100 mg/kg im): 2 to 24 h
≧50% Suppression Duration ([5]; 100 mg/kg im): 24 h
% Max LH Suppression ([5]; 100 mg/kg ip): 98%
time of % Max LH Suppression ([5]; 100 mg/kg ip): 4 h
≧50% Suppression Duration ([5]; 100 mg/kg ip): 8 h
% Max LH Suppression ([5]; 100 mg/kg po): 84%
time of % Max LH Suppression ([5]; 100 mg/kg po): 4 h
≧50% Suppression Duration ([5]; 100 mg/kg po): 8 h
% Max LH Suppression ([5]; 100 mg/kg sc): 80%
time of % Max LH Suppression ([5]; 100 mg/kg sc): 6 h
≧50% Suppression Duration ([5]; 100 mg/kg sc): 8 h
LH in CX rats ([5]; 1.0, 5.0 & 10 mg/kg, iv): dose-dependent suppression of LH
LH in CX rats ([5]; 20 or 100 mg/kg, ip): suppresses LH
Rat male pmol/min/mg 1 μM [1]: 3909 pmol/min/mg
Monkey pmol/min/mg 1 μM [6]: 9277 pmol/min/mg
Rat female pmol/min/mg 1 μM [7]: 94 pmol/min/mg
Ki [8]: > 4.4 µM
Ki [9]: 2.4 µM

Compound: Cc1cc2c(cc1Cc1ccc(C(=O)NCc3cccc(CNc4ccnc(NC[C@@H]5CCCO5)n4)c3)o1)C(C)(C)CCC2(C)C [Compound 136]
Dog pmol/min/mg 1 μM [3]: 3071 pmol/min/mg
% Max LH Suppression ([5]; 5.0 mg/kg iv): 48%
time of % Max LH Suppression ([5]; 5.0 mg/kg iv): 1 h
≧50% Suppression Duration ([5]; 5.0 mg/kg iv): 1.0 h
% Max LH Suppression ([5]; 10 mg/kg iv): 74%
time of % Max LH Suppression ([5]; 10 mg/kg iv): 2 h
≧50% Suppression Duration ([5]; 10 mg/kg iv): 6 h
% Max LH Suppression ([5]; 20 mg/kg iv): 98%
time of % Max LH Suppression ([5]; 20 mg/kg iv): 4 h
≧50% Suppression Duration ([5]; 20 mg/kg iv): ≧6 hr
Range of Plasma Conc. ([5]; 20 mg/kg po): 0.29 µM
Range of Plasma Conc. ([5]; 40 mg/kg po): 0.72 µM
Rat male pmol/min/mg 1 μM [1]: 4437 pmol/min/mg
Monkey pmol/min/mg 1 μM [6]: 5959 pmol/min/mg
Rat female pmol/min/mg 1 μM [7]: 271 pmol/min/mg
Ki [8]: 2.4 µM
Ki [9]: 0.16 µM

Compound: COc1cc(OC)c(NC(=O)c2ccc(Cc3cc4c(cc3OC)C(C)(C)CCC4(C)C)o2)c(OC)c1 [Compound 169]
Dog pmol/min/mg 1 μM [3]: 2301 pmol/min/mg
Ki [4]: 2.71 µM
Rat male pmol/min/mg 1 μM [1]: 3320 pmol/min/mg
Monkey pmol/min/mg 1 μM [6]: 5940 pmol/min/mg
Ki [9]: 3.4 µM

Compound: COc1cc(OC)c(NC(=O)c2ccc(Cc3cc4c(cc3C)C(C)(C)CCC4(C)C)o2)c(OC)c1C#N [Compound 177]
Dog pmol/min/mg 1 μM [3]: 2456 pmol/min/mg
Rat male pmol/min/mg 1 μM [1]: 2930 pmol/min/mg
Monkey pmol/min/mg 1 μM [6]: 3120 pmol/min/mg

More lines, main results first:

Rat male pmol/min/mg 1 μM [1]: 2393 pmol/min/mg
IC50 [2]: 0.043 µM
Compound: Cc1cc2c(cc1Cc1ccc(C(=O)NCc3cccc(CNc4nccc(NCC5CCCO5)n4)c3)o1)C(C)(C)CCC2(C)C (centres unmarked) [Compound 70]

Rat male pmol/min/mg 1 μM [1]: 1246 pmol/min/mg
Rat female pmol/min/mg 1 μM [7]: 64 pmol/min/mg
Compound: COc1cc(OC)c(NC(=O)c2ccc(Cc3cc4c(cc3C)CCCC4(C)C)o2)c(OC)c1 [Compound 183]
% Max LH Suppression ([5]; 10 mg/kg im): 58%
time of % Max LH Suppression ([5]; 10 mg/kg im): 2 h
% Max LH Suppression ([5]; 10 mg/kg iv): 92%
time of % Max LH Suppression ([5]; 10 mg/kg iv): 1 h
≧50% Suppression Duration ([5]; 10 mg/kg iv): 8 h
% Max LH Suppression ([5]; 50 mg/kg po): 60%
time of % Max LH Suppression ([5]; 50 mg/kg po): 2 h
≧50% Suppression Duration ([5]; 50 mg/kg po): 8 h

Rat male pmol/min/mg 1 μM [1]: 595 pmol/min/mg
Rat female pmol/min/mg 1 μM [7]: 86 pmol/min/mg
Compound: COc1cc(OC)c(NC(=O)c2ccc(Cc3cc(C(C)(C)C)ccc3C)o2)c(OC)c1 [Compound 200]
